Source: patent US20260297085A1, “1 H-PYRROLO[2,3-B]PYRIDIN-4-YL]-2-OXOPYRROLIDINE-3-CARBONITRILE DERIVATIVES AS TYROSINE KINASE 2 (TYK2) INHIBITORS FOR THE TREATMENT OF INFLAMMATORY DISEASES” (BIOGEN MA INC., priority 2023, published 2026)
Where a name gives a salt, the structure may show the parent alone.

How the values were obtained:
[1] = molecular target: T1, human JAK3 kinase domain (JH1) (Homo sapiens, UniProt P52333); assay: JH1 biochemical assay for JAK3 (ADP-Glo kinase assay, recombinant JH1 catalytic domain, JAK3-974 peptide, 4 μM ATP)
T1 construct: recombinantly generated catalytic kinase (also known as JH1) domain of human JAK1, JAK2, JAK3 and TYK2
Outline: (§1)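 Reactions ran 100 min with 50 μM substrate peptide (JAK3-342 for JAK1 at 4 nM enzyme; JAK3-974 for JAK2 0.2 nM, JAK3 0.3 nM, TYK2 2 nM), and ADP formed was read by ADP-Glo luminescence. Eleven-point 3-fold series from 10 or 1 μM; IC50 fitted by 4-parameter logistic model.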

[2] = molecular target: T2, human JAK1 kinase domain (JH1) (Homo sapiens, UniProt P23458); assay: JH1 biochemical assay for JAK1 (ADP-Glo kinase assay, recombinant JH1 catalytic domain, JAK3-342 peptide, 35 μM ATP)
T2 construct: recombinantly generated catalytic kinase (also known as JH1) domain of human JAK1, JAK2, JAK3 and TYK2
Outline: as §1

[3] = molecular target: T3, human TYK2 kinase domain (JH1) (Homo sapiens, UniProt P29597); assay: JH1 biochemical assay for TYK2 (ADP-Glo kinase assay, recombinant JH1 catalytic domain, JAK3-974 peptide, 10 μM ATP)
T3 construct: recombinantly generated catalytic kinase (also known as JH1) domain of human JAK1, JAK2, JAK3 and TYK2
T3 sequence (P29597 897-1176 limits assumed): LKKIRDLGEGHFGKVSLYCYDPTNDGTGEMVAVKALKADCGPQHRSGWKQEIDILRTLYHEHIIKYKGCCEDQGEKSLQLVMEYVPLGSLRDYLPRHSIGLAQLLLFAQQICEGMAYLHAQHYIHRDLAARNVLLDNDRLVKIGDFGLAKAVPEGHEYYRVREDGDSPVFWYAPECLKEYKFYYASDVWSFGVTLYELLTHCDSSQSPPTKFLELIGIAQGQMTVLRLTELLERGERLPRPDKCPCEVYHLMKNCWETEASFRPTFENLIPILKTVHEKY
Outline: as §1

[4] = molecular target: T4, human JAK2 kinase domain (JH1) (Homo sapiens, UniProt O60674); assay: JH1 biochemical assay for JAK2 (ADP-Glo kinase assay, recombinant JH1 catalytic domain, JAK3-974 peptide, 15 μM ATP)
T4 construct: recombinantly generated catalytic kinase (also known as JH1) domain of human JAK1, JAK2, JAK3 and TYK2
Outline: as §1

T2 sequence (P23458 875-1153 limits assumed): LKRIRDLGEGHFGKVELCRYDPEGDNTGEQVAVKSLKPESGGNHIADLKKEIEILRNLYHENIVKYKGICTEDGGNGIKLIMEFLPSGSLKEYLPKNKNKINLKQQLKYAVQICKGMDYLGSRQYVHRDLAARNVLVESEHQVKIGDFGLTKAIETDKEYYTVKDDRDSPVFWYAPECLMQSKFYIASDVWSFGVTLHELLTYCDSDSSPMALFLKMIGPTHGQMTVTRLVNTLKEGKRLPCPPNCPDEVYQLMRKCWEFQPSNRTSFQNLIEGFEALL
T4 sequence (O60674 849-1124 limits assumed): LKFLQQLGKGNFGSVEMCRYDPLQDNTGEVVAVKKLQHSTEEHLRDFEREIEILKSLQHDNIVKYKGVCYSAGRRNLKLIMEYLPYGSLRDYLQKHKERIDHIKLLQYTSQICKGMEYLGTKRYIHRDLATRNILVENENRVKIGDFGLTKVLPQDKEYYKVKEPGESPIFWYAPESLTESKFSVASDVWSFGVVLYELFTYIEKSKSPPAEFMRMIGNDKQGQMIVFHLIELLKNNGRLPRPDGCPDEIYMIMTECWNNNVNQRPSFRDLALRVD
T1 sequence (P52333 822-1111 limits assumed): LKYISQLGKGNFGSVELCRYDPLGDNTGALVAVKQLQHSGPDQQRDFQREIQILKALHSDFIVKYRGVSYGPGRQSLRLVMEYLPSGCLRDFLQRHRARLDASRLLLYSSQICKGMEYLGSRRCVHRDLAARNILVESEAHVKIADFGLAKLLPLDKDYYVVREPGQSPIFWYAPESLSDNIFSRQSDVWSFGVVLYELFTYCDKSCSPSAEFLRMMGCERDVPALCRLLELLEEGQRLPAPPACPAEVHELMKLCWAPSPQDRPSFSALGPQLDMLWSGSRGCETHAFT

Row | Compound | IC50 ([1]; JH1 kinase domain, ADP-Glo) | IC50 ([2]; JH1 kinase domain, ADP-Glo) | IC50 ([3]; JH1 kinase domain, ADP-Glo) | IC50 ([4]; JH1 kinase domain, ADP-Glo) | IC50 ([1]; JAK3 JH1, ADP-Glo) | IC50 ([2]; JAK1 JH1, ADP-Glo) | IC50 ([3]; TYK2 JH1, ADP-Glo) | IC50 ([4]; JAK2 JH1, ADP-Glo)
1 | CCc1ncccc1-c1cc2c(N3C[C@@H](C)[C@@](C#N)(C4CC4)C3=O)ccnn2c1 [Example 178, (3R,4S)-3-cyclopropyl-1-(6-(2-ethylpyridin-3-yl)pyrrolo[1,2-b]pyridazin-4-yl)-4-methyl-2-oxopyrrolidine-3-carbonitrile trifluoroacetate] | 5000 to 10000 nM | 5000 to 10000 nM | > 100 nM | > 10000 nM | – | – | – | –
2 | C[C@@H]1CN(c2cc(-c3cnn(C)c3)cc3nscc23)C(=O)[C@]1(C#N)C1CC1 [Example 351, (3R,4S)-3-cyclopropyl-4-methyl-1-(6-(1-methyl-1H-pyrazol-4-yl)benzo[c]isothiazol-4-yl)-2-oxopyrrolidine-3-carbonitrile] | – | – | – | – | 100 to 1000 nM | 100 to 1000 nM | 20 to 50 nM | 100 to 1000 nM
3 | C[C@@H]1CN(c2nc(-c3ncc[nH]3)cn3nccc23)C(=O)[C@]1(C#N)C1CC1 [Example 247, (3R,4S)-1-(6-(1H-imidazol-2-yl)pyrazolo[1,5-a]pyrazin-4-yl)-3-cyclopropyl-4-methyl-2-oxopyrrolidine-3-carbonitrile trifluoroacetate] | – | – | – | – | > 10000 nM | > 10000 nM | > 100 nM | > 10000 nM
4 | C[C@@H]1CN(c2ccnn3cc(-c4ncccn4)cc23)C(=O)[C@]1(C#N)C1CC1 [Example 139, ((3R,4S)-3-cyclopropyl-4-methyl-2-oxo-1-(6-(pyrimidin-2-yl)pyrrolo[1,2-b]pyridazin-4-yl)pyrrolidine-3-carbonitrile trifluoroacetate] | 1000 to 5000 nM | 1000 to 5000 nM | > 100 nM | > 10000 nM | – | – | – | –
5 | CC[C@@]1(C#N)CCN(c2ccnn3cc(-c4cnn(C)c4)cc23)C1=O (single isomer, unassigned) [Example 43] | > 10000 nM | > 10000 nM | > 100 nM | > 10000 nM | – | – | – | –
6 | C[C@@H]1CN(c2ccnn3cc(-c4ccc(N(C)C(=O)OC(C)(C)C)nc4)cc23)C(=O)[C@]1(C#N)C1CC1 [Example 95, tert-butyl (5-(4-((3R,4S)-3-cyano-3-cyclopropyl-4-methyl-2-oxopyrrolidin-1-yl)pyrrolo[1,2-b]pyridazin-6-yl)pyridin-2-yl)(methyl)carbamate] | 100 to 1000 nM | 100 to 1000 nM | 5 to 20 nM | 100 to 1000 nM | – | – | – | –
7 | Cc1cnn(-c2cc3nccc(N4C[C@@H](C)[C@@](C#N)(C5CC5)C4=O)c3o2)c1 [Example 345, (3R,4S)-3-cyclopropyl-4-methyl-1-(2-(4-methyl-1H-pyrazol-1-yl)furo[3,2-b]pyridin-7-yl)-2-oxopyrrolidine-3-carbonitrile] | – | – | – | – | 1000 to 5000 nM | 1000 to 5000 nM | 20 to 50 nM | 1000 to 5000 nM
8 | C[C@@H]1CN(c2ccnn3cc(-c4cncc(Cl)c4)cc23)C(=O)[C@]1(C#N)C1CC1 [Example 87, (3R,4S)-1-(6-(5-chloropyridin-3-yl)pyrrolo[1,2-b]pyridazin-4-yl)-3-cyclopropyl-4-methyl-2-oxopyrrolidine-3-carbonitrile] | > 10000 nM | 5000 to 10000 nM | 20 to 50 nM | > 10000 nM | – | – | – | –
9 | C[C@@H]1CN(c2cc(-c3cnn(C)c3)cc3nccn23)C(=O)[C@]1(C#N)C1CC1 [Example 287, (3R,4S)-3-cyclopropyl-4-methyl-1-(7-(1-methyl-1H-pyrazol-4-yl)imidazo[1,2-a]pyridin-5-yl)-2-oxopyrrolidine-3-carbonitrile] | – | – | – | – | > 10000 nM | > 10000 nM | > 100 nM | > 10000 nM
10 | CC(=O)Nc1cncc(-c2cn3nccc3c(N3C[C@@H](C)[C@@](C#N)(C4CC4)C3=O)n2)c1 [Example 249, N-(5-(4-((3R,4S)-3-cyano-3-cyclopropyl-4-methyl-2-oxopyrrolidin-1-yl)pyrazolo[1,5-a]pyrazin-6-yl)pyridin-3-yl)acetamide trifluoroacetate] | – | – | – | – | 5000 to 10000 nM | > 10000 nM | > 100 nM | > 10000 nM
11 | C[C@@H]1CN(c2ccnn3cc(-c4cc(C(F)(F)F)ncn4)cc23)C(=O)[C@]1(C#N)C1CC1 [Example 121, (3R,4S)-3-cyclopropyl-4-methyl-2-oxo-1-(6-(6-(trifluoromethyl)pyrimidin-4-yl)pyrrolo[1,2-b]pyridazin-4-yl)pyrrolidine-3-carbonitrile trifluoroacetate] | 1000 to 5000 nM | 1000 to 5000 nM | > 100 nM | 5000 to 10000 nM | – | – | – | –
12 | C[C@@H]1CN(c2ccnn3cc(-c4cncc(C(F)(F)F)c4)cc23)C(=O)[C@]1(C#N)C1CC1 [Example 70, (3R,4S)-3-cyclopropyl-4-methyl-2-oxo-1-(6-(5-(trifluoromethyl)pyridin-3-yl)pyrrolo[1,2-b]pyridazin-4-yl)pyrrolidine-3-carbonitrile] | 1000 to 5000 nM | 1000 to 5000 nM | 50 to 100 nM | 1000 to 5000 nM | – | – | – | –
13 | Cn1cc(-c2cc3c(N4CC[C@@](CC#N)(C5CC5)C4=O)ccnn3c2)cn1 [Example 27, (R)-2-(3-cyclopropyl-1-(6-(1-methyl-1H-pyrazol-4-yl)pyrrolo[1,2-b]pyridazin-4-yl)-2-oxopyrrolidin-3-yl)acetonitrile] | 1000 to 5000 nM | 1000 to 5000 nM | > 100 nM | 1000 to 5000 nM | – | – | – | –
14 | Cc1nc(-c2cc3c(N4C[C@@H](C)[C@@](C#N)(C5CC5)C4=O)ccnn3c2)ccc1F [Example 147, (3R,4S)-3-cyclopropyl-1-(6-(5-fluoro-6-methylpyridin-2-yl)pyrrolo[1,2-b]pyridazin-4-yl)-4-methyl-2-oxopyrrolidine-3-carbonitrile trifluoroacetate] | 100 to 1000 nM | 100 to 1000 nM | 5 to 20 nM | 100 to 1000 nM | – | – | – | –
15 | CC[C@]1(C#N)CCN(c2ccnn3cc(-c4cnn(C)c4)cc23)C1=O (single isomer, unassigned) [Example 42] | 1000 to 5000 nM | 1000 to 5000 nM | 50 to 100 nM | 1000 to 5000 nM | – | – | – | –
16 | C[C@@H]1CN(c2cccn3nc(-c4cnn(C)c4)cc23)C(=O)[C@]1(C#N)C1CC1 [Example 272, (3R,4S)-3-cyclopropyl-4-methyl-1-(2-(1-methyl-1H-pyrazol-4-yl)pyrazolo[1,5-a]pyridin-4-yl)-2-oxopyrrolidine-3-carbonitrile] | – | – | – | – | > 10000 nM | > 10000 nM | > 100 nM | > 10000 nM
17 | Cc1cc(-c2cc3c(N4C[C@@H](C)[C@@](C#N)(C5CC5)C4=O)ccnn3c2)ncc1F [Example 142, (3R,4S)-3-cyclopropyl-1-(6-(5-fluoro-4-methylpyridin-2-yl)pyrrolo[1,2-b]pyridazin-4-yl)-4-methyl-2-oxopyrrolidine-3-carbonitrile trifluoroacetate] | 1000 to 5000 nM | 1000 to 5000 nM | 20 to 50 nM | 1000 to 5000 nM | – | – | – | –
18 | C[C@@H]1CN(c2ccc3ncc(-c4cnn(C)c4)cn23)C(=O)[C@]1(C#N)C1CC1 [Example 283, (3R,4S)-3-cyclopropyl-4-methyl-1-(3-(1-methyl-1H-pyrazol-4-yl)pyrrolo[1,2-a]pyrimidin-6-yl)-2-oxopyrrolidine-3-carbonitrile] | – | – | – | – | > 10000 nM | > 10000 nM | > 100 nM | > 10000 nM
19 | CC[C@@H]1CN(c2ccnn3cc(-c4cnn(C)c4)cc23)C(=O)[C@@]1(C#N)C1CC1 [Example 26, (3S,4S)-3-cyclopropyl-4-ethyl-1-(6-(1-methyl-1H-pyrazol-4-yl)pyrrolo[1,2-b]pyridazin-4-yl)-2-oxopyrrolidine-3-carbonitrile] | > 10000 nM | > 10000 nM | > 100 nM | > 10000 nM | – | – | – | –
